In brackets after ≈: the same amount, converted by molar mass. Like-named read-outs stand apart in the source and are kept apart here. Residues, ends and D or L forms follow the SMILES beside them. No end group written: not given here.
Columns and labels:
human PBMC = assay: TLR agonist / cytokine induced cytokine secretion by PBMC (ELISA, multiplex bead immunoassay); assay type: cell-based
Method: All assays were performed in triplicate.

[1] = system: A549 human epithelial cells; assay: Induction of chemokines (IL-8, MCP-1) in A549 cells (ELISA); assay type: cell-based; details: peptide 10 ug/ml, 24 hr
Method: The murine macrophage cell line RAW 264.7, THP-1 cells (human monocytes), a human epithelial cell line (A549), human bronchial epithelial cells (16HBEo14), and whole human blood were used. HBE cells were grown in MEM with Earle's. THP-1 cells were grown and maintained in RPMI 1640 medium. The RAW and A549 cell lines were maintained in DMEM supplemented with 10% fetal calf serum. […] DMEM was aspirated from cells grown overnight and replaced with fresh medium. After incubation of the cells with peptide, the release of chemokines into the culture supernatant was determined by ELISA (R&D Systems, Minneapolis, Minn.).

[2] = assay type: cell-based
HBE cells = assay: WST-1 assay (cell viability); assay type: cell-based, human
Method: (§1) The potential toxicity of the peptides was measured in two ways. First, the Cytotoxicity Detection Kit (Roche) (Lactate dehydrogenase-LDH) Assay was used. It is a colorimetric assay for the quantification of cell death and cell lysis, based on the measurement of LDH activity released from the cytosol of damaged cells into the supernatant. LDH is a stable cytoplasmic enzyme present in all cells and it is released into the cell culture supernatant upon damage of the plasma membrane. An increase in the amount of dead or plasma membrane-damaged cells results in an increase of the LDH enzyme activity in the culture supernatant as measured with an ELISA plate reader, OD490 nm (the amount of color formed in the assay is proportional to the number of lysed cells). In this assay, human bronchial epithelial cells (I6HBEo14, HBE) cells were incubated with 100 μg of peptide for 24 hours, the supernatant removed and tested for LDH. The other assay used to measure toxicity of the cationic peptides was the WST-1 assay (Roche). This assay is a colorimetric assay for the quantification of cell proliferation and cell viability, based on the cleavage of the tetrazolium salt WST-1 by mitochondrial dehydrogenases in viable cells (a non-radioactive alternative to the [^3H]-thymidine incorporation assay). In this assay, HBE cells were incubated with 100 μg of peptide for 24 hours, and then 10 μl/well Cell Proliferation Reagent WST-1 was added. The cells are incubated with the reagent and the plate is then measured with an ELISA plate reader, OD490 nm.

[3] = system: human bronchial epithelial cells (HBE); assay: LDH release assay (Cytotoxicity Detection Kit); assay type: cell-based; details: 24 hours; for LDH Release (OD490 nm): 100 μg/ml, no peptide control 1.0 ± 0.05
Method: as §1

[4] = system: RAW 264.7 mouse macrophage cells; assay type: cell-based; details: Peptide 20 μg/ml; 100 ng/ml E. coli 0111:B4 LPS, 6 h
A549 epithelial cells = assay: Human Operon arrays (PRHU04-S1) of A549 cells treated with peptide alone (Tables 31-37, 53); details: peptide 50 μg/ml, 4 h, A549 cells
[5] = Staphylococcus aureus, overnight, 96-well plate
[6] = Citobacter rhodensis, overnight, 96-well plate
[7] = Enterohaemorrhagic E. coli, overnight, 96-well plate
[8] = Escherichia coli, overnight, 96-well plate
[9] = Pseudomonas aeruginosa, overnight, 96-well plate
[10] = Salmonella enteritidis ssp. typhimurium, overnight, 96-well plate

| Compound | IL-8 [1] | MIC, C. rhod. ([2]; 24 h) | MIC, E. coli ([2]; 24 h) | MIC, EHEC ([2]; 24 h) | MIC, P. aerug. ([2]; 24 h) | MIC, S. typhim. ([2]; 24 h) | MIC, S. aureus [2, 5] | OD490 nm (WST-1 cell viability) (HBE cells) | LDH Release (OD490 nm) [3] | Inhibition of TNF-α [4] | also measured |
| --- | --- | --- | --- | --- | --- | --- | --- | --- | --- | --- | --- |
| IL-1β |  |  |  |  |  |  |  |  |  |  | IL-6, Ave pg/ml (human PBMC; 4 hr, IL-1β −SEQ ID NO: 1): 39 pg/mL; IL-8, Ave pg/ml (human PBMC; 4 hr, IL-1β −SEQ ID NO: 1): 124 pg/mL; TNF-α, Ave pg/ml (human PBMC; 4 hr, IL-1β −SEQ ID NO: 1): 97 pg/mL; IL-6, Ave pg/ml (human PBMC; 24 hr, IL-1β −SEQ ID NO: 1): 645 pg/mL; IL-8, Ave pg/ml (human PBMC; 24 hr, IL-1β −SEQ ID NO: 1): 3034 pg/mL; TNF-α, Ave pg/ml (human PBMC; 24 hr, IL-1β −SEQ ID NO: 1): 20 pg/mL |
| KWKHALMKAHMLWHMIFHTALKPISS [SEQ ID NO: 52] | 0.207 ng/mL | 2 µg/mL | 8 µg/mL | 2 µg/mL | 32 µg/mL | 8 µg/mL | > |  |  |  |  |
| CC[C@H](C)[C@H](NC(=O)CNC(=O)[C@H](CCCNC(=N)N)NC(=O)[C@H](CCSC)NC(=O)[C@H](C)NC(=O)[C@@H](NC(=O)[C@H](CCCNC(=N)N)NC(=O)[C@H](CCCCN)NC(=O)[C@@H](NC(=O)[C@H](CS)NC(=O)[C@@H](NC(=O)[C@@H](N)CCCNC(=N)N)[C@@H](C)O)C(C)C)C(C)C)C(=O)N[C@H](C(=O)N[C@@H](CCCNC(=N)N)C(=O)N[C@@H](CCCCN)C(=O)N[C@@H](CCCNC(=N)N)C(=O)N[C@@H](CS)C(=O)N[C@@H](CCCNC(=N)N)C(=O)O)[C@@H](C)CC [SEQ ID NO: 33] (H-RTCVKRVAMRGIIRKRCR-OH; N-terminus and C-terminus assumed) | 0.328 ng/mL | 64 µg/mL (≈ 29.1 µM) | 16 µg/mL (≈ 7.26 µM) | 8 µg/mL (≈ 3.63 µM) |  | 16 µg/mL (≈ 7.26 µM) |  | 1.75 ± 0.21 OD490 nm | 1.03 ± 0.05 OD490 nm | 62.1 ± 0.08% | MIC, S. aureus ([2]; 24 h): 32 µg/mL (≈ 14.5 µM) |
| RPAWKYWWPWPWPRRK [SEQ ID NO: 22] |  | 4 µg/mL | 8 µg/mL | 4 µg/mL | 24 µg/mL | 8 µg/mL |  | 1.33 ± 0.07 OD490 nm | 1.29 ± 0.12 OD490 nm |  | MIC, S. aureus ([2]; 24 h): 12 µg/mL; ID#:ctrl intensity ratio, X65962 cytochrome P-450 (A549 epithelial cells): 5.1 |
| KWKSLVMMFKKPARRIFHTALKPISS [SEQ ID NO: 51] | 0.255 ng/mL |  |  |  |  |  | > |  |  |  | MIC, C. rhod. [2, 6]: 4 µg/mL; MIC, EHEC [2, 7]: 8 µg/mL; MIC, E. coli [2, 8]: 4 µg/mL; MIC, P. aerug. [2, 9]: 8 µg/mL; MIC, S. typhim. [2, 10]: 32 µg/mL |
| RPRYPWWPWWPYRPRK [SEQ ID NO: 19] |  | 4 µg/mL | 8 µg/mL | 4 µg/mL | 16 µg/mL | 64 µg/mL |  | 1.42 ± 0.15 OD490 nm | 1.08 ± 0.02 OD490 nm |  | MIC, S. aureus ([2]; 24 h): 16 µg/mL; ID#:ctrl intensity ratio, X65962 cytochrome P-450 (A549 epithelial cells): 3.8 |
| CC[C@H](C)[C@H](NC(=O)[C@@H](NC(=O)[C@H](CCCNC(=N)N)NC(=O)[C@@H](NC(=O)[C@@H]1CCCN1C(=O)[C@H](CO)NC(=O)[C@H](CCCCN)NC(=O)[C@H](Cc1ccccc1)NC(=O)[C@@H](NC(=O)[C@H](CCCNC(=N)N)NC(=O)[C@H](CC(C)C)NC(=O)[C@H](Cc1ccccc1)NC(=O)[C@H](CO)NC(=O)[C@H](CCCCN)NC(=O)[C@H](Cc1c[nH]c2ccccc12)NC(=O)[C@@H](N)CCCCN)[C@@H](C)O)C(C)C)[C@@H](C)O)C(=O)N[C@@H](Cc1ccccc1)C(=O)N[C@@H](Cc1c[nH]cn1)C(=O)N[C@H](C(=O)N[C@@H](C)C(=O)N[C@@H](CC(C)C)C(=O)N[C@@H](CCCCN)C(=O)N1CCC[C@H]1C(=O)N[C@H](C(=O)N[C@@H](CO)C(=O)N[C@@H](CO)C(=O)O)[C@@H](C)CC)[C@@H](C)O [SEQ ID NO: 47] | 0.383 ng/mL |  |  |  |  |  | > | 1.14 ± 0.23 OD490 nm | 1.05 ± 0.05 OD490 nm | 36.9 ± 2.2% |  |
| KWKSYAHTIMSPVRLVFHTALKPISS [SEQ ID NO: 54] | 0.133 ng/mL |  |  |  |  |  | > |  |  | 64 ± 0.73% | MIC, C. rhod. [2, 6]: 16 µg/mL; MIC, EHEC [2, 7]: 32 µg/mL; MIC, E. coli [2, 8]: 64 µg/mL; MIC, P. aerug. [2, 9]: 16 µg/mL; MIC, S. typhim. [2, 10]: 64 µg/mL |
| KWKKWAHSPRKVLTRIFHTALKPISS [SEQ ID NO: 50] | 0.141 ng/mL | 16 µg/mL | 8 µg/mL | 8 µg/mL | 16 µg/mL | 16 µg/mL | > |  |  |  |  |
| PAM3 |  |  |  |  |  |  |  |  |  |  | IL-1β, Ave pg/ml (human PBMC; 4 hr, PAM3 −SEQ ID NO: 1): 34 pg/mL; IL-6, Ave pg/ml (human PBMC; 4 hr, PAM3 −SEQ ID NO: 1): 435 pg/mL; IL-8, Ave pg/ml (human PBMC; 4 hr, PAM3 −SEQ ID NO: 1): 738 pg/mL; TNF-α, Ave pg/ml (human PBMC; 4 hr, PAM3 −SEQ ID NO: 1): 830 pg/mL; IL-1β, Ave pg/ml (human PBMC; 24 hr, PAM3 −SEQ ID NO: 1): 512 pg/mL; IL-6, Ave pg/ml (human PBMC; 24 hr, PAM3 −SEQ ID NO: 1): 7734 pg/mL; IL-8, Ave pg/ml (human PBMC; 24 hr, PAM3 −SEQ ID NO: 1): 7620 pg/mL; TNF-α, Ave pg/ml (human PBMC; 24 hr, PAM3 −SEQ ID NO: 1): 2334 pg/mL |
| TNF-α |  |  |  |  |  |  |  |  |  |  | IL-1β, Ave pg/ml (human PBMC; 4 hr, TNF-α −SEQ ID NO: 1): 74 pg/mL; IL-8, Ave pg/ml (human PBMC; 4 hr, TNF-α −SEQ ID NO: 1): 54 pg/mL; IL-1β, Ave pg/ml (human PBMC; 24 hr, TNF-α −SEQ ID NO: 1): 94 pg/mL; IL-6, Ave pg/ml (human PBMC; 24 hr, TNF-α −SEQ ID NO: 1): 9 pg/mL; IL-8, Ave pg/ml (human PBMC; 24 hr, TNF-α −SEQ ID NO: 1): 4410 pg/mL |
| 5′-TCATGACGTTCCTGACGTT-3′ (chemistry not given here) [CpG, reference compound] |  |  |  |  |  |  |  |  |  |  | IL-6, Ave pg/ml (human PBMC; 4 hr, CpG −SEQ ID NO: 1): <7 pg/mL; IL-8, Ave pg/ml (human PBMC; 4 hr, CpG −SEQ ID NO: 1): 20 pg/mL; TNF-α, Ave pg/ml (human PBMC; 4 hr, CpG −SEQ ID NO: 1): 28 pg/mL; IL-6, Ave pg/ml (human PBMC; 24 hr, CpG −SEQ ID NO: 1): 66 pg/mL; IL-8, Ave pg/ml (human PBMC; 24 hr, CpG −SEQ ID NO: 1): 339 pg/mL; TNF-α, Ave pg/ml (human PBMC; 24 hr, CpG −SEQ ID NO: 1): 28 pg/mL |
| KKSPIAPAIPWSR (Cationic peptide) [SEQ ID NO: 8, Formula A cationic peptide] |  |  |  |  |  |  | > |  |  | 39.3 ± 1.9% | MIC, E. coli [2, 8]: > |
| KWKRGAHRFMKFLSTIFHTALKPISS [SEQ ID NO: 49] | 0.301 ng/mL | 4 µg/mL | 4 µg/mL | 4 µg/mL | 16 µg/mL | 8 µg/mL | > |  |  | 86.9 ± 0.69% |  |
| ELPLKRGRVPVE [SEQ ID NO: 16] |  |  |  |  |  |  |  | 1.39 ± 0.26 OD490 nm | 0.91 ± 0.04 OD490 nm |  | ID#:ctrl intensity ratio, M14565 cytochrome P450 (A549 epithelial cells): 10.1 |
| KCKLFKKMLMLALKKVLTTGLPALKLTK [SEQ ID NO: 40] |  |  |  |  |  |  | 32 µg/mL | 0.46 ± 0.06 OD490 nm | 2.8 ± 0.5 OD490 nm |  | toxicity / membrane damage ([3]; as measured by both assays (LDH, WST-1), HBE cells): did induce membrane damage; MIC, C. rhod. [2, 6]: 4 µg/mL; MIC, EHEC [2, 7]: 2 µg/mL; MIC, E. coli [2, 8]: 4 µg/mL; MIC, P. aerug. [2, 9]: 8 µg/mL; MIC, S. typhim. [2, 10]: 4 µg/mL |

From US20070134261A1, “Effectors of innate immunity” (priority 2001, published 2007)
